Results from US9814699B2, “Chemical compounds” (Janssen Pharmaceuticals, Inc., priority 2009, dated 2017).

Assays:
[1] = test system: HCV genotype 1a subgenomic replicon; test: HCV replicon assay, genotype 1a subgenomic replicon (luciferase); assay type: cell-based; conditions: Hepatitis C virus; genotype 1a replicon stable cell line, luciferase activity measured 48 hours later; read-out: Replicon 1A pEC50 (converted)
How it was run: (§1)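 Stable Huh-type bicistronic firefly-luciferase replicon cells (1b ET line with E1202G/T1280I/K1846T; 1a line) exposed 48 h to compounds from 0.03 pM to 50 μM final, 0.5–1% DMSO. Luciferase inhibition normalised to controls. EC50 from 11-point curves with four-parameter logistic fit; cytotoxicity by CellTiter-Glo.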

[2] = test system: HCV genotype 1b subgenomic replicon; test: HCV replicon assay, genotype 1b subgenomic replicon (ET cell line, luciferase); assay type: cell-based; conditions: Hepatitis C virus; genotype 1b replicon ET cell line, luciferase activity measured 48 hours later; read-out: Replicon 1B pEC50 (converted)
How it was run: as §1

COC(=O)N[C@H](C(=O)N1CC2(CNC2)CC1c1ncc(-c2ccc(-c3ccc(-c4cnc([C@@H]5CCCN5C(=O)[C@@H](NC(=O)OC)C(C)C)[nH]4)cc3)cc2)[nH]1)C(C)C (stereo partly drawn) [Example 24, methyl [(1S)-2-methyl-1-({(2S)-2-[4-(4′-{2-[6-((2S)-3-methyl-2-{[(methyloxy)carbonyl]amino}butanoyl)-2,6-diazaspiro[3.4]oct-7-yl]-1H-imidazol-4-yl}-4-biphenylyl)-1H-imidazol-2-yl]-1-pyrrolidinyl}carbonyl)propyl]carbamate]
EC50 [1]: 3.16 nM | EC50 [2]: 0.126 nM

COC(=O)N[C@H](C(=O)N1CC2(CCOCC2)CC1c1ncc(-c2ccc(-c3ccc(-c4cnc([C@@H]5CCCN5C(=O)[C@@H](NC(=O)OC)C(C)C)[nH]4)cc3)cc2)[nH]1)C(C)C (stereo partly drawn) [Example 15, methyl [(1S)-2-methyl-1-({(2S)-2-[4-(4′-{2-[2-((2S)-3-methyl-2-{[(methyloxy)carbonyl]amino}butanoyl)-8-oxa-2-azaspiro[4.5]dec-3-yl]-1H-imidazol-4-yl}-4-biphenylyl)-1H-imidazol-2-yl]-1-pyrrolidinyl}carbonyl)propyl]carbamate]
EC50 [1]: 0.0631 nM | EC50 [2]: 0.0158 nM

COC(=O)N[C@H](C(=O)N1CC2(C[C@H]1c1ncc(-c3ccc(-c4ccc(-c5cnc([C@@H]6CC7(CN6C(=O)[C@@H](NC(=O)OC)C(C)C)O[C@@H](C)C[C@H](C)O7)[nH]5)cc4)cc3)[nH]1)O[C@@H](C)C[C@H](C)O2)C(C)C (stereo partly drawn) [Example 3, dimethyl (4,4′-biphenyldiylbis{1H-imidazole-4,2-diyl[(3S,7S,9S)-7,9-dimethyl-6,10-dioxa-2-azaspiro[4.5]decane-3,2-diyl][(2S)-3-methyl-1-oxo-1,2-butanediyl]})biscarbamate]
EC50 [1]: 25.1 nM | EC50 [2]: 0.0158 nM
